According to patent US5078135A, “Apparatus for in vivo analysis of biological compounds in blood or tissue by microdialysis and mass spectrometry” (Board of Regents, The University of Texas System, priority 1989, dated 1992):

Tests used:
[1] = in vivo pharmacokinetic analysis of free drug by microdialysis / CF-FAB mass spectrometry (jugular vein probe, rat); design: species or system Sprague Dawley male rat; settings: 330 gram rat, 15 milligrams sodium penicillin G in 0.3 milliliters saline, injected
Description: Referring to FIG. 1, the present invention applied to detect drug and metabolite levels in a rat is disclosed. It should be emphasized that the present apparatus and method can be applied to other animals, including humans. Microdialysis probe 11 is inserted inside a 22-gauge needle cannula (not shown) surgically placed in the jugular vein of a 330 gram Sprague Dawley male rat 12. A microliter syringe pump 13 is connected to microdialysis probe 11 by tube 14 and is used to controllably provide perfusate to microdialysis probe 11 through tube 14. Syringe pump 13 can be a Model 2274 pump available from the Harvard Apparatus Co., of Milford, Mass. In the preferred embodiment, the perfusate is 95% water and 5% glycerol provided at a rate of 4.8+/-0.2 microliters per minute.
The dialysate output from microdialysis probe 11 is connected through tube 16 to injection switch valve 17 which can be, for example, a Rheodyne Model 7410 injection switch valve. During collection, injection switch valve 17 is positioned so that dialysate passing through tube 16 passes through 20 microliter collection loop 18. […]
A 330 gram rat was injected with a dose of 15 milligrams of sodium penicillin G dissolved in 0.3 milliliters of physiological saline solution. Negative ions were recorded in the mass spectrometric analysis of the dialysate in order to obtain maximum sensitivity. […]

[2] = intramuscular administration; broken curve 43 in FIG. 4; cited from earlier work

CC1(C)S[C@@H]2[C@H](NC(=O)Cc3ccccc3)C(=O)N2[C@H]1C(=O)O [sodium penicillin G]
peak concentration of free drug (non-protein bound) [1]: approximately 24 micrograms per milliliter | time of peak concentration of free drug [1]: about 30 minutes | time to peak, published data [2]: 26 to 30 min
